Reference: patent publication US11046646B2, “Alkylphenyl compounds” (BRISTOL-MYERS SQUIBB COMPANY, priority 2017, dated 2021)

Experiments:
S1P1 = S1P1 (Homo sapiens (Human), UniProt P21453); assay: Receptor [35S] GTPγS binding assay, S1P1; type: biochemical; settings: for GTPγS S1P1 EC50 value as compared to Comparative Compound 20: in words; for EC50: membranes from S1P1/CHO cells, synthetically prepared phosphorylated compounds
Description: (§1) Receptor [^35S] GTPγS Binding Assays:
(§2) Compounds were loaded in a 384 Falcon v-bottom plate (0.5 μL/well in a 11 point, 3-fold dilution). Membranes prepared from S1P1/CHO cells or EDG3-Gal5-bla HEK293T cells (EDG3 equivalent S1P3) were added to the compound plate (40 μL/well, final protein 3 μg/well) with MULTIDROP®. [^35S]GTP (1250 Ci/mmol, Perkin Elmer) was diluted in assay buffer: 20 mM HEPES, pH7.5, 10 mM MgCl2, 150 mM NaCl, 1 mM EGTA(ethylene glycol tetraacetic acid), 1 mM DTT (dithiothreitol), 10 μM GDP, 0.1% fatty acid free BSA, and 10 μg/ml Saponin to 0.4 nM. 40 μL of the [^35S] GTP solution was added to the compound plate with a final concentration of 0.2 nM. The reaction was kept at room temperature for 45 min. At the end of incubation, all the mixtures in the compound plate were transferred to Millipore 384-well FB filter plates via the VELOCITY11® Vprep liquid handler. The filter plate was washed with water 4 times by using the manifold Embla plate washer and dried at 60° C. for 45 min. MicroScint 20 scintillation fluid (30 μL) was added to each well for counting on the Packard TOPCOUNT®. EC50 is defined as the agonist concentration that corresponds to 50% of the Ymax (maximal response) obtained for each individual compound tested.
A smaller value for GTPγS S1P1 EC50 value indicated greater activity for the compound in the GTPγS S1P1 binding assay. Thus the compounds of the present invention may be used in treating, preventing, or curing various S1P1 receptor-related conditions. The compounds have potential use in treating, preventing, or curing autoimmune and inflammatory diseases such as multiple sclerosis, rheumatoid arthritis, inflammatory bowel disease, lupus, psoriasis, or minimizing or reducing rejection of transplanted organs.

S1P3 (EDG3) = S1P3 (EDG3) (Homo sapiens (Human), UniProt Q99500); assay: Receptor [35S] GTPγS binding assay, S1P3; type: biochemical; settings: membranes from EDG3-Gal5-bla HEK293T cells; synthetically prepared phosphorylated compounds
Description: as §1, §2

Chain of S1P1 (P21453 whole entry): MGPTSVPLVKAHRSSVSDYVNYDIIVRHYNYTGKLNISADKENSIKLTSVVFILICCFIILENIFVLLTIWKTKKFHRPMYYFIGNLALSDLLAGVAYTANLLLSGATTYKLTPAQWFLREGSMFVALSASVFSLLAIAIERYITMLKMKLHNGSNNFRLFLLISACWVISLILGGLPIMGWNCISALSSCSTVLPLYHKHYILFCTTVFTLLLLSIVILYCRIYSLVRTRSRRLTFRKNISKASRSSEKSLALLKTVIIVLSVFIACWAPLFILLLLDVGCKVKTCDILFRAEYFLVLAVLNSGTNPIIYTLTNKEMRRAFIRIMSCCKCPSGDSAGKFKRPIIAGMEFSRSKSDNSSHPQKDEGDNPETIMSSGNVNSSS
Chain of S1P3 (EDG3) (Q99500 whole entry): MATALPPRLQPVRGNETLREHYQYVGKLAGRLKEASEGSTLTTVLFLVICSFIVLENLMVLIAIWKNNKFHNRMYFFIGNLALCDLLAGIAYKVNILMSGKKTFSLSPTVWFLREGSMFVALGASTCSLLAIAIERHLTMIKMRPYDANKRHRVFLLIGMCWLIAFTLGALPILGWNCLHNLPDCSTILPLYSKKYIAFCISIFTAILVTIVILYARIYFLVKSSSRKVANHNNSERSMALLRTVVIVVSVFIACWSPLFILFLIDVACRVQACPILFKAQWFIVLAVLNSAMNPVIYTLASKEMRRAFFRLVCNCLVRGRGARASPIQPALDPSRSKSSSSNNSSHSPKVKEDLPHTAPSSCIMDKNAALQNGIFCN

Compound	GTPγS S1P1 EC50 value as compared to Comparative Compound 20 (S1P1)	EC50 (S1P1) [nM]	EC50 (S1P3 (EDG3)) [nM]
CCCCCCCCc1ccc(CN2CCC(N)(COP(=O)(O)O)C2=O)cc1 (stereo not shown) [Example 14, (3-amino-1-(4-octylbenzyl)-2-oxopyrrolidin-3-yl)methyl dihydrogen phosphate]	significant improvement	41	> 30000
CCCCCCCCc1ccc(N2CCC(N)(COP(=O)(O)O)C2=O)c(C)c1 (stereo not shown) [Example 17, (3-amino-1-(2-methyl-4-octylphenyl)-2-oxopyrrolidin-3-yl)methyl dihydrogen phosphate]	significant improvement	161	> 60000
CCCCCCCCc1ccc(N2CCC(N)(COP(=O)(O)O)C2=O)cc1 (stereo not shown) [Example 18, (3-amino-1-(4-octylphenyl)-2-oxopyrrolidin-3-yl)methyl dihydrogen phosphate]		454	> 60000
CCCCCCCCc1ccc(N2CCC(N)(COP(=O)(O)O)C2)cc1 (stereo not shown) [compound 20, (3-amino-1-(4-octylphenyl)pyrrolidin-3-yl)methyl dihydrogen phosphate, reference compound]		384	> 30000
